For test [1], the target named is T1, Muscarinic acetylcholine receptor M5 (Homo sapiens, UniProt P08912).
T1 sequence (P08912 whole entry): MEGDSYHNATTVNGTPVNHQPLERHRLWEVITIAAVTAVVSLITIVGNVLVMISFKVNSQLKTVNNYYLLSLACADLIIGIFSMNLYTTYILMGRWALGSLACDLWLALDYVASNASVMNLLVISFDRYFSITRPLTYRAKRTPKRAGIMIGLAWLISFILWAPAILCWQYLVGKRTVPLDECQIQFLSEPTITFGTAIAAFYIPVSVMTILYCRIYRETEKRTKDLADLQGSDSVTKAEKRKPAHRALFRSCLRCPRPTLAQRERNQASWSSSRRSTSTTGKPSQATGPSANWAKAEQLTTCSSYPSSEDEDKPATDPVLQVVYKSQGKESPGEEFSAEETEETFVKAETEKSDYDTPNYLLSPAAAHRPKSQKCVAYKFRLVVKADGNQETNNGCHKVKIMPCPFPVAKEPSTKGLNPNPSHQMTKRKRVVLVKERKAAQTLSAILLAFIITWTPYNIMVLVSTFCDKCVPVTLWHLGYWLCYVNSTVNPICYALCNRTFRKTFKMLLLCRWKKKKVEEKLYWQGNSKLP

The target of test [2] is 5-hydroxytryptamine receptor 5A (Homo sapiens, UniProt P47898).
The target in test [3] is T2, Prostaglandin G/H synthase 1 (Rattus norvegicus, UniProt Q63921).
T2 sequence (Q63921 whole entry): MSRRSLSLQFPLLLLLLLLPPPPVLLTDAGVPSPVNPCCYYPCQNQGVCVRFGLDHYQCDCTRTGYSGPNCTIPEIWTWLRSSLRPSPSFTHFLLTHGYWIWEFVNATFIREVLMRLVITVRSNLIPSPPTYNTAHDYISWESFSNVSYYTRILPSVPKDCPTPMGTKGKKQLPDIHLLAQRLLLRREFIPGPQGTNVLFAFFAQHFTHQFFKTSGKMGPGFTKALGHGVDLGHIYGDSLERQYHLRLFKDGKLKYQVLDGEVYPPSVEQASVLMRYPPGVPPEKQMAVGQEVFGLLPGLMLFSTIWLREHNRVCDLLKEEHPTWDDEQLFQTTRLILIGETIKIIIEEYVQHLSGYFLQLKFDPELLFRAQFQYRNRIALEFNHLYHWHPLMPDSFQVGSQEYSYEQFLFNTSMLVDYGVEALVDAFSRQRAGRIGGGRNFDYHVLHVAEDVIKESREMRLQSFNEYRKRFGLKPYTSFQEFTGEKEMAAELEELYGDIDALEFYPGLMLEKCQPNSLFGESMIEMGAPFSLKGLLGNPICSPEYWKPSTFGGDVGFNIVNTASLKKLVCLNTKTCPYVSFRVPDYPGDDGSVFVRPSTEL
The format is functional.

Test [4] deals with 5-hydroxytryptamine receptor 2B (Homo sapiens, UniProt P41595).
The target in test [5] is T3, Nuclear receptor subfamily 1 group I member 3 (Homo sapiens, UniProt Q14994).
T3 sequence (Q14994 whole entry): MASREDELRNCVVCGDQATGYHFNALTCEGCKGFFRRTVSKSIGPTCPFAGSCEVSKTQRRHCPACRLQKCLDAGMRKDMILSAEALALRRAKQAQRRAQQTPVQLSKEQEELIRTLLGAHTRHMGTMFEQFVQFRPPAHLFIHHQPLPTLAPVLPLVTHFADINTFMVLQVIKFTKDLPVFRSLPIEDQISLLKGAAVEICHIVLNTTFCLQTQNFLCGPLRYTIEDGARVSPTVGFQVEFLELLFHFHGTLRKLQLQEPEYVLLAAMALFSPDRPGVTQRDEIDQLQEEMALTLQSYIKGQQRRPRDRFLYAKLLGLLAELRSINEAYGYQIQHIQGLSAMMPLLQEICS
The format is functional.

For test [6], the target named is T4, Peroxisome proliferator-activated receptor alpha (Homo sapiens, UniProt Q07869).
T4 sequence (Q07869 whole entry): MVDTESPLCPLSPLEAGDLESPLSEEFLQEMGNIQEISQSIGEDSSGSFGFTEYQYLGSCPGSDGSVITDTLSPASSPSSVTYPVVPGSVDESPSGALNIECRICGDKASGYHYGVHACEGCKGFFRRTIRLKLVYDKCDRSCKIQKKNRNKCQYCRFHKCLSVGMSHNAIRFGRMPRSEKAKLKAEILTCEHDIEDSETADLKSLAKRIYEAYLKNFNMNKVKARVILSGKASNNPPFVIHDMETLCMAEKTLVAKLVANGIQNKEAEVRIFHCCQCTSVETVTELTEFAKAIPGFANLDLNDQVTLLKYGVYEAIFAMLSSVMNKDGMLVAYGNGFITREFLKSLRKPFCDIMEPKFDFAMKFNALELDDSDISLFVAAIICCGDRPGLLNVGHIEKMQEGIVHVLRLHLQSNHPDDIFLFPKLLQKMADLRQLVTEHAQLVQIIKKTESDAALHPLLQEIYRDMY
In kind it is functional.

The target of test [7] is T4, Peroxisome proliferator-activated receptor alpha. The format is functional. This is another data set of the same source.
Further: assay procedure not described here.

Chain of 5-hydroxytryptamine receptor 2B (P41595 whole entry): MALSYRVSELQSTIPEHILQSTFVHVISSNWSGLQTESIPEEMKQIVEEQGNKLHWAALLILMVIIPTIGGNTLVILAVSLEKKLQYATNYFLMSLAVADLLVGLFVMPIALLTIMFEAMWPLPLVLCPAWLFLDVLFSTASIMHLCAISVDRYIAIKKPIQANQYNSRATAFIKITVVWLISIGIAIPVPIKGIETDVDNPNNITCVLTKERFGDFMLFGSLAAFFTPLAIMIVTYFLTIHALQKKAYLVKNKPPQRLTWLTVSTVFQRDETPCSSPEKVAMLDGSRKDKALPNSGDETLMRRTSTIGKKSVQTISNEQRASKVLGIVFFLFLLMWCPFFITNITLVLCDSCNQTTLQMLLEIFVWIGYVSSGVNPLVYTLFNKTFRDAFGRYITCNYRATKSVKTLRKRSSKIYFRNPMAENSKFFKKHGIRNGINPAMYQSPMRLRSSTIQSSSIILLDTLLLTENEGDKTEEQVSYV
Chain of 5-hydroxytryptamine receptor 5A (P47898 whole entry): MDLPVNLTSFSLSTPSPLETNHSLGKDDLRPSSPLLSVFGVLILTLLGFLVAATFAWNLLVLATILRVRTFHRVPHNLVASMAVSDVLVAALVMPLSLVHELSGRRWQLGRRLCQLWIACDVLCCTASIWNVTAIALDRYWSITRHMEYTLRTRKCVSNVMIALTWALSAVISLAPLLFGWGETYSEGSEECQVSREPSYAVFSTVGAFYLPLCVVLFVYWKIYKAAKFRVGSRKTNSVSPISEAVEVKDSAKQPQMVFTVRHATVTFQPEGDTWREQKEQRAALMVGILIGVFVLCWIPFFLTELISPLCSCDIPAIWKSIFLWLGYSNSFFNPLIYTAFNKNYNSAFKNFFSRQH

In general, AC50 refers to the concentration at which the activity in the assay is half-maximal. Read a high AC50 as activity only at high concentration. Take `CCOC(=O)[C@H](CCc1ccccc1)N[C@@H](C)C(=O)N1Cc2ccccc2C[C@H]1C(=O)O`: the AC50 in test [1] and in test [2] was greater than 10 µM throughout. `CN(C)CCC=C1c2ccccc2CCc2ccccc21` [AMITRIPTYLINE] came in with an AC50 in test [3] greater than 30 µM. The same measure, in the same setting: under `CCN(CC)CCn1c(=O)c(Cc2ccc(OC)cc2)nc2ccccc21` [CAROVERINE] stands 15.9 µM. In the case of `CN(C)CCCC1(c2ccc(F)cc2)OCc2cc(C#N)ccc21` (centres undefined) [CITALOPRAM], in test [4], the AC50 was 0.3 µM. As to `CC(C)/N=c1\cc2n(-c3ccc(Cl)cc3)c3ccccc3nc-2cc1Nc1ccc(Cl)cc1` [CLOFAZIMINE], the AC50 in test [5], in test [6] and in test [7] was greater than 30 µM in each case. On to `NCC1(CC(=O)O)CCCCC1` [GABAPENTIN], for which the AC50 in test [1] was greater than 10 µM. For the compound `OCCOCCN1CCN(C(c2ccccc2)c2ccc(Cl)cc2)CC1` (centres undefined) [HYDROXYZINE], in test [2], the AC50 came to 0.28 µM. This lies in the sub-micromolar range. For `CC(=O)SCC(Cc1ccccc1)C(=O)NCC(=O)OCc1ccccc1` (centres undefined) [RACECADOTRIL], the AC50 in test [6] was greater than 30 µM; in test [7], 29 µM. Turning to `Cc1ccc(C(C)C)c(O)c1` [THYMOL], half-maximal activity in test [4] (AC50) was put at 9.1 µM. In the case of `Cc1c(C)c2c(c(C)c1O)CCC(C)(COc1ccc(CC3SC(=O)NC3=O)cc1)O2` (centres undefined) [TROGLITAZONE], the AC50 in test [5] was determined as 3.4 µM.

Source of the values: ChEMBL document CHEMBL5291721, “A preclinical secondary pharmacology resource illuminates target-adverse drug reaction associations of marketed drugs” (Nat Commun, 2023).
